Reference: ChEMBL document CHEMBL2057168, “(1aR,5aR)1a,3,5,5a-Tetrahydro-1H-2,3-diaza-cyclopropa[a]pentalene-4-carboxylic acid (MK-1903): a potent GPR109a agonist that lowers free fatty acids in humans” (J Med Chem, 2012)
Calls of active or inactive are those of the source. The calls are words filed in the database; no cut-off is given here.

Target: Hydroxycarboxylic acid receptor 3 (Homo sapiens) (UniProt P49019)
Test: Agonist activity at human GPR109b assessed as decrease in forskolin-stimulated cAMP production by HTRF assay
Type: functional

Sequence of Hydroxycarboxylic acid receptor 3 (Homo sapiens) (P49019 whole entry): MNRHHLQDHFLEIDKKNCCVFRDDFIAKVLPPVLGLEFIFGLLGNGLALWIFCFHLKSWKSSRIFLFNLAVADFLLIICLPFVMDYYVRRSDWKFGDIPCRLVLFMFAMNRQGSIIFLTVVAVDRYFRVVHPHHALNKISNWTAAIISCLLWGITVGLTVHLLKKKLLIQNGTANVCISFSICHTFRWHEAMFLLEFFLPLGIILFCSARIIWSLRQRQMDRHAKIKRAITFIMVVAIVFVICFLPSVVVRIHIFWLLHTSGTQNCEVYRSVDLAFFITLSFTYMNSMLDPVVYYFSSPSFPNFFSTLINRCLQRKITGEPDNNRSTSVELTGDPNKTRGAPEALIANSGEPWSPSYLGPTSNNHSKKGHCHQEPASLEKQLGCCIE

## CC(C)[C@@H]1[C@@H]2Cc3c(C(=O)O)n[nH]c3[C@@H]21 (racemic)
  Activity: inactive

## C[C@@H]1[C@@H]2Cc3c(C(=O)O)n[nH]c3[C@H]12 (racemic)
  Activity: inactive

## C=C[C@H]1[C@@H]2Cc3c(C(=O)O)n[nH]c3[C@H]12 (racemic)
  Activity: inactive

## C1Cc2[nH]nc(-c3nn[nH]n3)c2C1
  Activity: inactive

## CCC[C@H]1[C@@H]2Cc3c(C(=O)O)n[nH]c3[C@H]12 (racemic)
  Activity: inactive

## CCCCC[C@@H]1[C@@H]2Cc3c(C(=O)O)n[nH]c3[C@H]12 (racemic)
  Activity: inactive

## O=C(O)c1n[nH]c2c1CC1CC21 (racemic)
  Activity: inactive

## CCOC[C@H]1[C@@H]2Cc3c(C(=O)O)n[nH]c3[C@H]12 (racemic)
  Activity: inactive

## CSC[C@@H]1[C@@H]2Cc3c(C(=O)O)n[nH]c3[C@H]12 (racemic)
  Activity: inactive

## CSC[C@H]1[C@@H]2Cc3c(C(=O)O)n[nH]c3[C@H]12 (racemic)
  Activity: inactive

## CC(C)CC[C@H]1[C@@H]2Cc3c(C(=O)O)n[nH]c3[C@H]12 (racemic)
  Activity: inactive

## CCCC[C@H]1[C@@H]2Cc3c(C(=O)O)n[nH]c3[C@H]12 (racemic)
  Activity: inactive

## CC1(C)C2Cc3c(C(=O)O)n[nH]c3C21 (racemic)
  Activity: inactive

## O=C(O)c1n[nH]c2c1C[C@@H]1[C@H]2[C@@H]1C1CC1 (racemic)
  Activity: inactive

## O=C(O)c1n[nH]c2c1C[C@H]1[C@H](c3ccccc3)[C@@H]21 (racemic)
  Activity: inactive

## CCCC[C@@H]1[C@@H]2Cc3c(C(=O)O)n[nH]c3[C@H]12 (racemic)
  Activity: inactive

## CCCCC[C@H]1[C@@H]2Cc3c(C(=O)O)n[nH]c3[C@H]12 (racemic)
  Activity: inactive

## CC[C@H]1[C@@H]2Cc3c(C(=O)O)n[nH]c3[C@H]12 (racemic)
  Activity: inactive

## O=C(O)c1n[nH]c2c1C[C@H]1[C@@H](CC3CC3)[C@@H]21 (racemic; form 1)
  Activity: inactive

## O=C(O)c1n[nH]c2c1C[C@H]1[C@H](Cc3ccccc3)[C@@H]21 (racemic)
  Activity: inactive

## C[C@@H]1[C@H]2Cc3c(C(=O)O)n[nH]c3[C@@H]12
  Activity: inactive
